Results as given in patent publication US8535897B2, “Assays for non-apoptotic cell death and uses thereof” (The Trustees of Columbia University in the City of New York, priority 2006, dated 2013).

Assays:
Type in all cases: cell-based, human
BJ-TERT/LT/ST/RASV12 = experiment: Alamar blue viability assay, engineered tumor cells
Procedure: Erastin was tested in a dilution series in five engineered cell lines derived from primary BJ fibroblasts. Cells were incubated with erastin for two days at 37° C. with 5% CO2, Alamar blue was added (10% final volume) and fluorescence measured (530 nm ex, 590 nm em). Cell lines harboring oncogenic RAS (triangles, circles and x's) were sensitive to erastin, but isogenic lines lacking oncogenic RAS (squares and diamonds) were resistant. Two different clones of engineered tumor cells (circles and triangles) responded similarly.
(a) BJ-TERT/LT/ST/RAS^V12 cells were treated with 9 μM erastin A1 for the indicated length of time, and the number of viable cells determined. (b) 1,000 BJ-TERT/LT/ST/RAS^V12 cells/well in 384-well plates were treated with erastin for 2 d, then alamar blue was added to a final concentration of 10% and the plates were incubated for 16 h. Red fluorescence resulting from reduction of alamar blue was detected on a Victor3 platereader. The percent growth inhibition is shown; error bars represent one SD. […] (c) TEM images (20,000× magnification) of BJ-TERT/LT/ST/RAS^V12 mitochondria after cells were treated with nothing, erastin (37 μM for 10 h) or staurosporine (STS, 1 μM for 5 h), and phase-contrast photograph of BJ-TERT/LT/ST/RAS^V12 cells 24 h after 9 μM erastin A1 treatment is also shown to indicate that even after cell death, nuclei are intact. (d) Anti-oxidants suppress erastin-induced death. BJ-TERT/LT/ST/RAS^V12 cells were treated as indicated and photographed. (e) The number of viable cells was quantified under each condition using a hemacytometer. (f) Iron chelators suppress erastin-induced cell death. Cells were seeded in 384-well plates (6,000 cells/well) and treated with 2-fold dilution series of erastin in the presence of 100 μM desferrioxamine mesylate (DFOM), 100 μM of iron chelator 1a, 100 μM of iron chelator 2, 10 μM or 1 μM of iron chelator 311. After 24 h, alamar blue was added and cell viability assayed. (g, h) Erastin-induced formation of oxidative species. BJ-TERT/LT/ST/RAS^V12 (shown in histogram plots, and in line graph as dark diamonds) or BJ-TERT cells (shown in line graph only, light circles) were treated with 4.6-μM erastin A1 and the level of intracellular oxidative species determined. (i, j) STS, but not erastin, induces PARP1 cleavage (red bands at top) in BJ-TERT/LT/ST/RAS^V12 cells and in A673, HT1080 and HeLa cells. NS: non-specific band. […] Cells were treated with STS or erastin, separated into mitochondrial and cytosolic fractions, and probed for cytochrome c (lower red band) and total VDAC (middle green band, pan-VDAC antibody). (1) Caspase-3 is not cleaved in response to erastin. Cells were treated as indicated and probed with an anti-caspase-3 antibody that recognizes both the full length and the cleaved, active form (lower band). […] ATP levels were measured, viable cells determined by Trypan Blue exclusion and ATP per viable cell determined. Abbreviations: DMSO, dimethylsulfoxide; BHT, butylated hydroxytoluene; TOC, alpha-tocopherol; ERA, erastin A1; CAR, beta-carotene; STS, staurosprine.
(a) Calu-1 lung carcinoma cells harboring oncogenic KRAS were infected with lentivirus containing shRNAs targeting KRAS or GFP. Sequences of shRNAs are indicated by starting nucleotide (nt) in the KRAS mRNA coding sequence. Cells were treated with erastin and viability measured by Trypan Blue exclusion. (b) Knockdown of KRAS was confirmed by western blot. (c,d) A673 cells harboring oncogenic BRAF were infected with lentiviral shRNAs targeting BRAF exon 5 (c) or the 5′ UTR (d), luciferase (LUC)(c) or GFP (d). Cells were treated with erastin and viability measured using Alamar Blue (c) and Trypan Blue (d). (e) Knockdown of BRAF was confirmed by western blot. […] BJ-TERT/LT/ST/RAS^V12 cells were treated with erastin alone or in with a MEK inhibitor U0126 (20 μM), MEK inhibitor I (10 μM) or MEK 1/2 inhibitor (50 μM). After 48 h, viability was determined using Trypan Blue. […]

VDAC2 = experiment: VDAC isoform levels after erastin treatment (quantitative 2D western); conditions: BJ-TERT/LT/ST/RASV12 cells
Text: (§1) (a) Quantitative western blot of VDAC/eif4E protein ratio in engineered BJ-derived cells. (b) Identification of VDAC isoforms in BJ-TERT/LT/ST/RAS^V12 cells using 2-D electrophoresis. i) VDAC1, VDAC2 and VDAC3 were detected by a rabbit polyclonal VDAC antibody (Abcam/ab3434), ii) VDAC1 was detected by a mouse monoclonal VDAC1 antibody (Calbiochem/529534), iii) VDAC2 was detected by a goat polyclonal VDAC2 antibody (Abcam/ab22170), iv) An illustration of 3 isoforms of VDAC separated by the 2-D gel electrophoresis. (c) BJ-TERT/LT/ST/RASV12 cells were treated with erastin for the indicated time and levels of each VDAC isoform determined by quantitative 2D western. (d,e) Infection with VDAC3 shRNA protects erastin-treated cells. 293T cells were transfected with shRNA-plasmid construct using FuGene and viral supernatant transferred to HT1080 cells, and treated with erastin dilutions and viability measured using Trypan Blue exclusion. […] (f) Quantitative RT-PCR measurements of mRNA levels of the 3 VDAC isoforms after infection with shVDAC3. Knockdown was determined by normalizing to the levels in the shGFP-infected control. […] (g) Mitochondria were purified from yeast expressing murine VDAC3 in place of yeast VDAC, and the rate of NADH uptake determined in the presence or absence of erastin, or in shocked mitochondria in which the outer membrane was disrupted. […]

VDAC3 = experiment: as above; conditions: BJ-TERT/LT/ST/RASV12 cells
Text: as §1

SMILES: CCOc1ccccc1-n1c(C(C)N2CCN(C(=O)COc3ccc(Cl)cc3)CC2)nc2ccccc2c1=O (stereo not shown) [erastin]
- RAS-selective lethality (BJ-TERT/LT/ST/RASV12): at least 16 fold
- RAS selectivity (BJ-TERT/LT/ST/RASV12; BJ-TERT/LT/ST vs BJ-TERT/LT/ST/RASV12): >16
- treatment time after which VDAC2 became undetectable (VDAC2): 10 h
- treatment time after which VDAC3 was no longer detectable (VDAC3): 8 h
